Test results from patent publication US6699682B2, “Assay for inhibitors of fatty-acid amide hydrolase” (The Scripps Research Institute, priority 1995, dated 2004).

Assays:
[1] = biological target: T1, human recombinant expressed FAAH (Homo sapiens, UniProt O00519); assay: oleamide hydrolysis by COS-7 cells transfected with human oleamide hydrolase (TLC); assay type: biochemical; details: versus control COS-7 cells
T1 construct: expressed in transfected cells; host or cells: COS-7 cells, transient, pcDNA3; dounce-homogenised cell extract
T1 sequence (O00519 1-579): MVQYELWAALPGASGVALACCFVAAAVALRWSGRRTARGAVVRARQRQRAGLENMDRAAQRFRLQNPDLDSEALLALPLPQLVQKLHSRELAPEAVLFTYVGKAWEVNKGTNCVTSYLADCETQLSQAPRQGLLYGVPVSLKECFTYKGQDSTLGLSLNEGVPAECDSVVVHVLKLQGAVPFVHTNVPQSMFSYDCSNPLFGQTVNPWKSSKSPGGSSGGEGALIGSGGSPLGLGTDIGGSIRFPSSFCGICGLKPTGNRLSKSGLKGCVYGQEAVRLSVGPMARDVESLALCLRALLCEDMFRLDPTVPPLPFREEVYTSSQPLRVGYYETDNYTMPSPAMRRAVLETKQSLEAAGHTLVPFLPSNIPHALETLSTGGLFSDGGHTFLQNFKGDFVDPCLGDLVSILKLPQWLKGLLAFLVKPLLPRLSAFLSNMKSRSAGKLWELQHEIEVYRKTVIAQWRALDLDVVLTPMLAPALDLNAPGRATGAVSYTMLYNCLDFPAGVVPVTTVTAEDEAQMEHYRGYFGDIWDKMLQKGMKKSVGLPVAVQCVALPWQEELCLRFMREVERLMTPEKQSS
Protocol: For preparing the rat, mouse and human FAAH recombinant protein, the corresponding FAAH cDNAs were excised from the Bluescript II vectors and separately ligated into the eukaryotic expression vector, pcDNA3 (Invitrogen, San Diego, Calif.). 100 mm dishes of COS-7 cells were grown at 37° C. to 70% confluency in complete medium (DMEM with L-glutamine, non-essential amino acids, sodium pyruvate and fetal bovine serum). The COS-7 cells were then washed with serum-free medium and treated with 5 ml of transfection solution (5-6 μg of FAAH-pcDNA3 vector were preincubated with transfectamine (Gibco-BRL) for 30 minutes in 1 ml of serum free medium, then diluted to a final volume of 5 ml with serum free medium). The COS-7 cells were incubated at 37° C. for 5 hours, at which point 10 ml of complete medium was added to the cells and incubation was continued at 37° C. for 12 hours. The transfection solution was then aspirated away from the COS-7 cells, and the cells were incubated in a fresh batch of complete medium for another 24 hours. […]
(§1) While untransfected COS-7 cells contained negligible amounts of oleamide hydrolase activity, COS-7 cells transfected with the rat FAAH cDNA expressed high levels of oleamide hydrolase activity (FIG. 15A). The assay was performed as described in Section B where by TLC the conversion of oleamide to oleic acid was assessed.

[2] = biological target: T2, recombinant rat FAAH (Rattus norvegicus, UniProt P97612); assay: oleamide hydrolase activity of rat FAAH-transfected COS-7 cell extract and its inhibition (TLC); assay type: biochemical; details: versus untransfected and control transfected cells
T2 construct: expressed in transfected cells; host or cells: COS-7 cells, transient, pcDNA3; dounce-homogenised cell extract
T2 sequence (P97612 1-579): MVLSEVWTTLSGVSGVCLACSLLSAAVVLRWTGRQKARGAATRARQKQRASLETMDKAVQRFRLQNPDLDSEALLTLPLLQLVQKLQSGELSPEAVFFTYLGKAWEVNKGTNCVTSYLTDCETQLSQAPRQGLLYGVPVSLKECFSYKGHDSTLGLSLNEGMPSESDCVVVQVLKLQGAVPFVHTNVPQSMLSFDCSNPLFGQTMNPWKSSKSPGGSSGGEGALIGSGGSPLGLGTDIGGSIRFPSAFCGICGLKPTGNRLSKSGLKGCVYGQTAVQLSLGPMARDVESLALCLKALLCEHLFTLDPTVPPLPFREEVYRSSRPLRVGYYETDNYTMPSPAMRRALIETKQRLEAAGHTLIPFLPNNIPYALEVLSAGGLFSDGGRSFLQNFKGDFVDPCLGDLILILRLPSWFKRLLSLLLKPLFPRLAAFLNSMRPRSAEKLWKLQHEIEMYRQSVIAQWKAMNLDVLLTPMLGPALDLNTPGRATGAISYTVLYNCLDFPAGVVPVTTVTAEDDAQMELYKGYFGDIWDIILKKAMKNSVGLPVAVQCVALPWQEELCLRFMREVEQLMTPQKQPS
Protocol: The following thin layer chromatography (TLC) protocol is used for assaying cis-9,10 octadecenoamide hydrolysis activity, also referred to as fatty-acid amide hydrolase activity. Oleamide is first labeled with ^14C. To accomplish this, ^14C-Oleic acid (1-10 μM, Moravek Biochemicals, 5-50 μCi/μM) in CH2CL2 (200 μL, 0.005-0.05 M) at 0° C. was treated with excess oxalyl chloride and the reaction mixture was warmed to 25° C. for 6 hours. The reaction mixture was then concentrated under a constant stream of gaseous nitrogen and the remaining residue was cooled to 0° C. and treated with excess saturated aqueous ammonium hydroxide. After 5 minutes, the reaction mixture was partitioned between Et)Ac (1.5 mL) and 10% HCl (1.0 mL). The organic layer was then washed with water (1.0 mL) and concentrated under a constant stream of gaseous nitrogen to provide ^14C-oleamide in quantitative yield as judged by TLC (60% EtOAc in hexanes; oleamide Rf−0.2; oleic acid Rf−0.8). […]
as §1, with “assessed. […]” for “assessed.”

`CCCCCCCC/C=C\CCCCCCCC(N)=O` [cis-9,10-octadecenoamide, Cis-9,10-octadecenoamide] was tested, and the “conversion of oleamide to oleic acid by human FAAH-transfected COS-7 cells (qualitative, TLC)” value [1] was “conversion to oleic acid is seen only in lane 2” and the “conversion of labeled substrate by rat FAAH-transfected COS-7 cells (qualitative, TLC)” value [2] was “effective at converting labeled oleamide to oleic acid”.
